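96-well plates; 48 h exposure; 5 concentrations. Endpoints by linear interpolation between flanking doses. Not reached: highest tested concentration assigned. GI50: concentration for 50% inhibition of growth.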 Activity calls are given as the source filed them. No stated cut-off is given here; in the data, active = GI50 up to about 1.1 µM and inactive = higher.
What was measured:
Test in all cases: NCI-60 cell line screen, 48 h
[1] = system: SK-OV-3
[2] = system: U-251
[3] = system: SF-295
[4] = system: DMS-273
[5] = system: NCI-H23
[6] = system: UO-31
[7] = system: SK-MEL-28
[8] = system: HOP-92
[9] = system: HT-29
[10] = system: UACC-257
[11] = system: SNB-19
[12] = system: MOLT-4
[13] = system: HCC 2998
[14] = system: XF498
[15] = system: SF-268
[16] = system: OVCAR-8
[17] = system: HL-60
[18] = system: RPMI-8226
[19] = system: LOX IMVI
[20] = system: NCI-H522
[21] = system: DLD-1
[22] = system: LXFL 529
[23] = system: A549
[24] = system: 786-0
[25] = system: K562
[26] = system: NCI-H226
[27] = system: KM12
[28] = system: KM-20L2
[29] = system: EKVX
[30] = system: SF-539
[31] = system: Malme-3M
[32] = system: TK-10
[33] = system: OVCAR-3
[34] = system: SNB-78
[35] = system: SN12C
[36] = system: UACC-62
[37] = system: SK-MEL-2
[38] = system: M19-MEL
[39] = system: ACHN
[40] = system: HOP-62
[41] = system: SNB-75
[42] = system: OVCAR-5
[43] = system: A498
[44] = system: DMS-114
[45] = system: M14
[46] = system: CCRF-CEM
[47] = system: SR
[48] = system: COLO 205
[49] = system: SW-620
[50] = system: HCT-116
[51] = system: RXF 393
[52] = system: IGROV-1
[53] = system: OVCAR-4
[54] = system: HCT-15
[55] = system: SK-MEL-5
[56] = system: HOP-18
[57] = system: NCI-H460

How did the GI50 [1] turn out when `ON1CCc2c([nH]c3ccccc23)C1c1ccc(Cl)cc1` (centres undefined) was run?
Its GI50 is 46.7 µM (inactive).

And the GI50 [2]?
The GI50 was 15.2 µM (inactive).

What about the GI50 [3] of the same compound?
Its GI50 is 27.7 µM (inactive).

And the GI50 [4]?
Its GI50 is 31.3 µM (inactive).

What about the GI50 [5] of the same compound?
Its GI50 is 21.9 µM (inactive).

And the GI50 [6]?
The GI50 was 25.8 µM (inactive).

What about the GI50 [7] of the same compound?
The GI50 was 36.4 µM (inactive).

What about the GI50 [8] of the same compound?
The GI50 was 16.8 µM (inactive).

What about the GI50 [9] of the same compound?
Its GI50 is 17 µM (inactive).

And the GI50 [10]?
Its GI50 is 30.1 µM (inactive).

What about the GI50 [11] of the same compound?
The GI50 was 29 µM (inactive).

What about the GI50 [12] of the same compound?
The GI50 was 21.4 µM (inactive).

And the GI50 [13]?
The GI50 was 23.8 µM (inactive).

And the GI50 [14]?
Its GI50 is 22.6 µM (inactive).

And the GI50 [15]?
The GI50 was 33 µM (inactive).

And the GI50 [16]?
The GI50 was 32.4 µM (inactive).

And the GI50 [17]?
Its GI50 is 25.9 µM (inactive).

What about the GI50 [18] of the same compound?
Its GI50 is 29.6 µM (inactive).

And the GI50 [19]?
Its GI50 is 18.8 µM (inactive).

And the GI50 [20]?
The GI50 was 28.1 µM (inactive).

And the GI50 [21]?
Its GI50 is 25.2 µM (inactive).

And the GI50 [22]?
Its GI50 is 24 µM (inactive).

What about the GI50 [23] of the same compound?
Its GI50 is 30 µM (inactive).

What about the GI50 [24] of the same compound?
Its GI50 is 32.1 µM (inactive).

And the GI50 [25]?
Its GI50 is 18.2 µM (inactive).

And the GI50 [26]?
The GI50 was 20.3 µM (inactive).

And the GI50 [27]?
The GI50 was 27.5 µM (inactive).

And the GI50 [28]?
The GI50 was 21.7 µM (inactive).

What about the GI50 [29] of the same compound?
Its GI50 is 35.8 µM (inactive).

What about the GI50 [30] of the same compound?
The GI50 was 30.5 µM (inactive).

What about the GI50 [31] of the same compound?
The GI50 was 29.4 µM (inactive).

And the GI50 [32]?
Its GI50 is 43.9 µM (inactive).

What about the GI50 [33] of the same compound?
The GI50 was 27.4 µM (inactive).

And the GI50 [34]?
The GI50 was 33 µM (inactive).

And the GI50 [35]?
Its GI50 is 26.1 µM (inactive).

What about the GI50 [36] of the same compound?
Its GI50 is 31 µM (inactive).

What about the GI50 [37] of the same compound?
Its GI50 is 23.1 µM (inactive).

What about the GI50 [38] of the same compound?
Its GI50 is 36.8 µM (inactive).

And the GI50 [39]?
The GI50 was 31 µM (inactive).

What about the GI50 [40] of the same compound?
Its GI50 is 76.4 µM (inactive).

And the GI50 [41]?
The GI50 was 30.3 µM (inactive).

What about the GI50 [42] of the same compound?
The GI50 was 31.3 µM (inactive).

What about the GI50 [43] of the same compound?
The GI50 was 33.1 µM (inactive).

What about the GI50 [44] of the same compound?
The GI50 was 19.4 µM (inactive).

What about the GI50 [45] of the same compound?
The GI50 was 42.7 µM (inactive).

What about the GI50 [46] of the same compound?
Its GI50 is 18.2 µM (inactive).

And the GI50 [47]?
Its GI50 is 20.3 µM (inactive).

And the GI50 [48]?
Its GI50 is 32.9 µM (inactive).

And the GI50 [49]?
Its GI50 is 33.2 µM (inactive).

What about the GI50 [50] of the same compound?
Its GI50 is 0.384 µM (active).

What about the GI50 [51] of the same compound?
The GI50 was 22.1 µM (inactive).

How did the GI50 [1] turn out when `NC(=O)N/N=C/C(=C/Nc1ccccc1)[N+](=O)[O-]` was run?
The GI50 was > 100 µM (inactive).

What about the GI50 [2] of the same compound?
Its GI50 is > 100 µM (inactive).

What about the GI50 [3] of the same compound?
The GI50 was > 100 µM (inactive).

What about the GI50 [4] of the same compound?
Its GI50 is > 100 µM (inactive).

What about the GI50 [5] of the same compound?
Its GI50 is > 100 µM (inactive).

What about the GI50 [6] of the same compound?
Its GI50 is > 100 µM (inactive).

What about the GI50 [7] of the same compound?
Its GI50 is > 100 µM (inactive).

What about the GI50 [8] of the same compound?
Its GI50 is 79.3 µM (inactive).

What about the GI50 [9] of the same compound?
Its GI50 is > 100 µM (inactive).

What about the GI50 [10] of the same compound?
Its GI50 is > 100 µM (inactive).

What about the GI50 [11] of the same compound?
The GI50 was > 100 µM (inactive).

And the GI50 [12]?
Its GI50 is 93.8 µM (inactive).

What about the GI50 [13] of the same compound?
The GI50 was > 100 µM (inactive).

What about the GI50 [14] of the same compound?
Its GI50 is > 100 µM (inactive).

What about the GI50 [15] of the same compound?
The GI50 was > 100 µM (inactive).

And the GI50 [16]?
The GI50 was > 100 µM (inactive).

What about the GI50 [17] of the same compound?
The GI50 was > 100 µM (inactive).

And the GI50 [52]?
The GI50 was > 100 µM (inactive).

And the GI50 [18]?
Its GI50 is > 100 µM (inactive).

What about the GI50 [19] of the same compound?
The GI50 was > 100 µM (inactive).

What about the GI50 [20] of the same compound?
Its GI50 is > 100 µM (inactive).

And the GI50 [21]?
The GI50 was > 100 µM (inactive).

What about the GI50 [22] of the same compound?
The GI50 was > 100 µM (inactive).

And the GI50 [23]?
Its GI50 is > 100 µM (inactive).

And the GI50 [24]?
Its GI50 is > 100 µM (inactive).

And the GI50 [25]?
The GI50 was > 100 µM (inactive).

What about the GI50 [53] of the same compound?
Its GI50 is > 100 µM (inactive).

What about the GI50 [28] of the same compound?
The GI50 was > 100 µM (inactive).

And the GI50 [29]?
The GI50 was > 100 µM (inactive).

And the GI50 [54]?
The GI50 was > 100 µM.

What about the GI50 [32] of the same compound?
The GI50 was > 100 µM (inactive).

What about the GI50 [33] of the same compound?
The GI50 was > 100 µM (inactive).

And the GI50 [55]?
The GI50 was > 100 µM (inactive).

And the GI50 [35]?
The GI50 was > 100 µM (inactive).

What about the GI50 [36] of the same compound?
Its GI50 is > 100 µM (inactive).

And the GI50 [38]?
Its GI50 is > 100 µM (inactive).

And the GI50 [39]?
Its GI50 is > 100 µM (inactive).

And the GI50 [40]?
The GI50 was > 100 µM (inactive).

And the GI50 [56]?
The GI50 was > 100 µM (inactive).

And the GI50 [44]?
Its GI50 is > 100 µM (inactive).

And the GI50 [45]?
Its GI50 is > 100 µM (inactive).

What about the GI50 [46] of the same compound?
Its GI50 is > 100 µM (inactive).

And the GI50 [57]?
The GI50 was 89.1 µM (inactive).

And the GI50 [47]?
The GI50 was > 100 µM (inactive).

And the GI50 [48]?
The GI50 was > 100 µM (inactive).

And the GI50 [49]?
Its GI50 is > 100 µM (inactive).

What about the GI50 [50] of the same compound?
The GI50 was > 100 µM (inactive).

And the GI50 [51]?
The GI50 was > 100 µM (inactive).
